Results taken from PubChem BioAssay (NCI).
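Five compound concentrations were applied to cells in 96-well plates for 48 hours; endpoints were derived by simple linear interpolation of the resulting dose-response curve. GI50: concentration for 50% inhibition of growth. Definition used: TGI = concentration required for complete inhibition of growth.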

Legend:
Assay in all cases: inhibition of tumour cell growth, NCI panel, 48 h
786-0 renal = system: 786-0 renal
A498 renal = system: A498 renal
A549 NSCLC = system: A549 NSCLC
ACHN renal = system: ACHN renal
BT-549 breast = system: BT-549 breast
CAKI-1 renal = system: CAKI-1 renal
CCRF-CEM leukemia = system: CCRF-CEM leukemia
COLO 205 colon = system: COLO 205 colon
DU-145 prostate = system: DU-145 prostate
EKVX NSCLC = system: EKVX NSCLC
HCC-2998 colon = system: HCC-2998 colon
HCT-116 colon = system: HCT-116 colon
HCT-15 colon = system: HCT-15 colon
HL-60(TB) leukemia = system: HL-60(TB) leukemia
HOP-62 NSCLC = system: HOP-62 NSCLC
HOP-92 NSCLC = system: HOP-92 NSCLC
HS 578T breast = system: HS 578T breast
HT29 colon = system: HT29 colon
IGROV1 ovarian = system: IGROV1 ovarian
K-562 leukemia = system: K-562 leukemia
KM12 colon = system: KM12 colon
LOX IMVI melanoma = system: LOX IMVI melanoma
M14 melanoma = system: M14 melanoma
MALME-3M melanoma = system: MALME-3M melanoma
MCF7 breast = system: MCF7 breast
MDA-MB-231 breast = system: MDA-MB-231 breast
MDA-MB-435 = system: MDA-MB-435
NCI-H226 lung = system: NCI-H226 lung
NCI-H23 lung = system: NCI-H23 lung
NCI-H460 lung = system: NCI-H460 lung
NCI-H522 lung = system: NCI-H522 lung
NCI/ADR-RES ovarian = system: NCI/ADR-RES ovarian
OVCAR-3 ovarian = system: OVCAR-3 ovarian
OVCAR-4 ovarian = system: OVCAR-4 ovarian
OVCAR-5 ovarian = system: OVCAR-5 ovarian
OVCAR-8 ovarian = system: OVCAR-8 ovarian
PC-3 prostate = system: PC-3 prostate
RPMI-8226 leukemia = system: RPMI-8226 leukemia
RXF 393 renal = system: RXF 393 renal
SF-268 CNS = system: SF-268 CNS
SF-295 CNS = system: SF-295 CNS
SF-539 CNS = system: SF-539 CNS
SK-MEL-2 melanoma = system: SK-MEL-2 melanoma
SK-MEL-28 melanoma = system: SK-MEL-28 melanoma
SK-MEL-5 melanoma = system: SK-MEL-5 melanoma
SK-OV-3 ovarian = system: SK-OV-3 ovarian
SN12C renal = system: SN12C renal
SNB-19 CNS = system: SNB-19 CNS
SNB-75 CNS = system: SNB-75 CNS
SR leukemia = system: SR leukemia
SW-620 colon = system: SW-620 colon
T-47D breast = system: T-47D breast
TK-10 renal = system: TK-10 renal
U251 CNS = system: U251 CNS
UACC-257 melanoma = system: UACC-257 melanoma
UACC-62 melanoma = system: UACC-62 melanoma
UO-31 renal = system: UO-31 renal
MOLT-4 leukemia = system: MOLT-4 leukemia

## C#C[C@]1(O)CC[C@H]2[C@@H]3CC=C4c5sc(-c6cccc(O)c6)nc5CC[C@]4(C)[C@H]3CC[C@@]21C
786-0 renal
  GI50: 0.386 µM
  TGI: 1.88 µM
A498 renal
  GI50: 15.2 µM
  TGI: 32.5 µM
A549 NSCLC
  GI50: 2.57 µM
  TGI: 11 µM
ACHN renal
  GI50: 0.687 µM
  TGI: 6.72 µM
BT-549 breast
  GI50: 1.07 µM
  TGI: 3.47 µM
CAKI-1 renal
  GI50: 2.25 µM
  TGI: 5.15 µM
CCRF-CEM leukemia
  GI50: 0.339 µM
  TGI: > 100 µM
COLO 205 colon
  GI50: 5.41 µM
  TGI: 20.8 µM
DU-145 prostate
  GI50: 2.45 µM
  TGI: 17.5 µM
EKVX NSCLC
  GI50: 2.5 µM
  TGI: 10.7 µM
HCC-2998 colon
  GI50: 1.81 µM
  TGI: 5.12 µM
HCT-116 colon
  GI50: 0.993 µM
  TGI: 3 µM
HCT-15 colon
  GI50: 0.505 µM
  TGI: 1.94 µM
HL-60(TB) leukemia
  GI50: 0.835 µM
  TGI: 6.12 µM
HOP-62 NSCLC
  GI50: 1.48 µM
  TGI: 4.39 µM
HOP-92 NSCLC
  GI50: 1.45 µM
  TGI: 3.07 µM
HS 578T breast
  GI50: 0.207 µM
  TGI: 0.642 µM
HT29 colon
  GI50: 3.17 µM
  TGI: 10.8 µM
IGROV1 ovarian
  GI50: 2.98 µM
  TGI: 10.3 µM
K-562 leukemia
  GI50: 0.506 µM
  TGI: > 100 µM
KM12 colon
  GI50: 1.15 µM
  TGI: 5 µM
LOX IMVI melanoma
  GI50: 0.269 µM
  TGI: 1.26 µM
M14 melanoma
  GI50: 0.252 µM
  TGI: 0.671 µM
MALME-3M melanoma
  GI50: 0.421 µM
  TGI: 2.98 µM
MCF7 breast
  GI50: 1.56 µM
  TGI: 4.39 µM
MDA-MB-231 breast
  GI50: 1.05 µM
  TGI: 4.1 µM
MDA-MB-435
  GI50: 1.32 µM
  TGI: 3.94 µM
NCI-H226 lung
  GI50: 5.25 µM
  TGI: 25 µM
NCI-H23 lung
  GI50: 1.55 µM
  TGI: 3.67 µM
NCI-H460 lung
  GI50: 2.57 µM
  TGI: 7.13 µM
NCI-H522 lung
  GI50: 1.48 µM
  TGI: 3.58 µM
NCI/ADR-RES ovarian
  GI50: 1.95 µM
  TGI: 5.58 µM
OVCAR-3 ovarian
  GI50: 2.48 µM
  TGI: 7.46 µM
OVCAR-4 ovarian
  GI50: 2.73 µM
  TGI: 9.52 µM
OVCAR-5 ovarian
  GI50: 2.25 µM
  TGI: 5.93 µM
OVCAR-8 ovarian
  GI50: 2.1 µM
  TGI: > 100 µM
PC-3 prostate
  GI50: 0.357 µM
  TGI: 1.72 µM
RPMI-8226 leukemia
  GI50: 0.157 µM
  TGI: 0.725 µM
RXF 393 renal
  GI50: 0.177 µM
  TGI: 0.449 µM
SF-268 CNS
  GI50: 1.99 µM
  TGI: 17.5 µM
SF-295 CNS
  GI50: 0.178 µM
  TGI: 0.437 µM
SF-539 CNS
  GI50: 0.151 µM
  TGI: 0.538 µM
SK-MEL-2 melanoma
  GI50: 0.528 µM
  TGI: 2.39 µM
SK-MEL-28 melanoma
  GI50: 0.236 µM
  TGI: 0.64 µM
SK-MEL-5 melanoma
  GI50: 1.65 µM
  TGI: 3.06 µM
SK-OV-3 ovarian
  GI50: 2.07 µM
  TGI: 6.83 µM
SN12C renal
  GI50: 2.3 µM
  TGI: 9.98 µM
SNB-19 CNS
  GI50: 1.26 µM
  TGI: 4.28 µM
SNB-75 CNS
  GI50: 0.319 µM
  TGI: 6.1 µM
SR leukemia
  GI50: 0.46 µM
  TGI: > 100 µM
SW-620 colon
  GI50: 0.653 µM
  TGI: 2.36 µM
T-47D breast
  GI50: 2.58 µM
  TGI: 7.27 µM
TK-10 renal
  GI50: 2.76 µM
  TGI: 9.19 µM
U251 CNS
  GI50: 0.688 µM
  TGI: 2.96 µM
UACC-257 melanoma
  GI50: 1.86 µM
  TGI: 4.63 µM
UACC-62 melanoma
  GI50: 2.3 µM
  TGI: 5.55 µM
UO-31 renal
  GI50: 0.46 µM
  TGI: 5.75 µM

## CS(=O)c1nccc(-c2c(-c3ccc(F)c(OCCc4ccc(F)cc4)c3)nc3sccn23)n1 (stereo not drawn)
786-0 renal
  GI50: 34.8 µM
  TGI: > 100 µM
A498 renal
  GI50: > 100 µM
  TGI: > 100 µM
A549 NSCLC
  GI50: > 100 µM
  TGI: > 100 µM
ACHN renal
  GI50: 2.07 µM
  TGI: 4.37 µM
BT-549 breast
  GI50: 18.4 µM
  TGI: 37.5 µM
CAKI-1 renal
  GI50: 11.1 µM
  TGI: 23 µM
CCRF-CEM leukemia
  GI50: 5.16 µM
  TGI: 24 µM
COLO 205 colon
  GI50: 28.4 µM
  TGI: > 100 µM
DU-145 prostate
  GI50: 4.13 µM
  TGI: 14.5 µM
EKVX NSCLC
  GI50: 17 µM
  TGI: 42.3 µM
HCC-2998 colon
  GI50: 11.7 µM
  TGI: 24.9 µM
HCT-116 colon
  GI50: 3.52 µM
  TGI: 12.4 µM
HCT-15 colon
  GI50: 3.95 µM
  TGI: 16.9 µM
HL-60(TB) leukemia
  GI50: 2.5 µM
  TGI: 6.05 µM
HOP-62 NSCLC
  GI50: 16.2 µM
  TGI: 32.2 µM
HOP-92 NSCLC
  GI50: 6.72 µM
  TGI: 26.7 µM
HS 578T breast
  GI50: 19.9 µM
  TGI: 79.6 µM
HT29 colon
  GI50: 14.9 µM
  TGI: 30.1 µM
IGROV1 ovarian
  GI50: 2.48 µM
  TGI: 6.65 µM
K-562 leukemia
  GI50: 3.04 µM
  TGI: 11.7 µM
KM12 colon
  GI50: 14.5 µM
  TGI: 29.2 µM
LOX IMVI melanoma
  GI50: 10.5 µM
  TGI: 23.4 µM
M14 melanoma
  GI50: 15.2 µM
  TGI: 30.4 µM
MALME-3M melanoma
  GI50: 15.3 µM
  TGI: 33.3 µM
MCF7 breast
  GI50: 2.02 µM
  TGI: 4.81 µM
MDA-MB-231 breast
  GI50: 14.6 µM
  TGI: 31.9 µM
MDA-MB-435
  GI50: 16.7 µM
  TGI: 32.2 µM
MOLT-4 leukemia
  GI50: 4.04 µM
  TGI: 15.8 µM
NCI-H226 lung
  GI50: 15.5 µM
  TGI: 32.4 µM
NCI-H460 lung
  GI50: 4.89 µM
  TGI: 17.4 µM
NCI-H522 lung
  GI50: 13.5 µM
  TGI: 29.7 µM
NCI/ADR-RES ovarian
  GI50: 20.3 µM
  TGI: 49 µM
OVCAR-3 ovarian
  GI50: 3.45 µM
  TGI: 12.9 µM
OVCAR-4 ovarian
  GI50: 14.7 µM
  TGI: 28.6 µM
OVCAR-5 ovarian
  GI50: 39.9 µM
  TGI: > 100 µM
OVCAR-8 ovarian
  GI50: 14.3 µM
  TGI: 28 µM
PC-3 prostate
  GI50: 11.9 µM
  TGI: 27.4 µM
RPMI-8226 leukemia
  GI50: 4.84 µM
  TGI: 28.4 µM
RXF 393 renal
  GI50: 13.3 µM
  TGI: 26.3 µM
SF-268 CNS
  GI50: 16.1 µM
  TGI: 32.1 µM
SF-295 CNS
  GI50: > 100 µM
  TGI: > 100 µM
SF-539 CNS
  GI50: 18 µM
  TGI: 41 µM
SK-MEL-2 melanoma
  GI50: 15.6 µM
  TGI: 29.7 µM
SK-MEL-28 melanoma
  GI50: 9.81 µM
  TGI: 21.5 µM
SK-MEL-5 melanoma
  GI50: 23.4 µM
  TGI: 58.7 µM
SK-OV-3 ovarian
  GI50: > 100 µM
  TGI: > 100 µM
SN12C renal
  GI50: 15.2 µM
  TGI: 33.7 µM
SNB-19 CNS
  GI50: 14.6 µM
  TGI: 29.3 µM
SNB-75 CNS
  GI50: 21.2 µM
  TGI: > 100 µM
SR leukemia
  GI50: 4.22 µM
  TGI: 28.8 µM
SW-620 colon
  GI50: 3.5 µM
  TGI: 14.1 µM
T-47D breast
  GI50: 2.49 µM
  TGI: 6.12 µM
TK-10 renal
  GI50: 30.9 µM
  TGI: > 100 µM
U251 CNS
  GI50: 28.8 µM
  TGI: > 100 µM
UACC-257 melanoma
  GI50: 14.6 µM
  TGI: 29.5 µM
UACC-62 melanoma
  GI50: 16.1 µM
  TGI: 33.2 µM
UO-31 renal
  GI50: 1.82 µM
  TGI: 4.11 µM
